Measured values taken from patent US20260284062A1 (Konstantin Pavlovich GARYAEV, priority 2023, published 2026).

Columns and labels:
[1] = system: myocardial infarction, ischemic stroke and peripheral thrombosis; conditions: oral antiplatelet therapy with acetylsalicylic acid and clopidogrel; cited from earlier work
[2] = 0.5% Novocaine, 5.0-10.0 ml, in medicinal mixture administered into the recommended sites; cited from earlier work
[3] = Patient history of statin treatment (tolerability); format: in vivo, human; conditions: history of patient M. (Example 1)

CC(=O)Oc1ccccc1C(=O)O [acetylsalicylic acid]
reduction of the risk of myocardial infarction, ischemic stroke and peripheral thrombosis [1]: 20-25%

COC(=O)[C@H](c1ccccc1Cl)N1CCc2sccc2C1 [clopidogrel]
reduction of the risk of myocardial infarction, ischemic stroke and peripheral thrombosis [1]: 20-25%

CCN(CC)CCOC(=O)c1ccc(N)cc1 [Novocaine]
undesirable effects [2]: reduction of arterial pressure up to collapse, dizziness, headache, arrhythmia

CCC(C)(C)C(=O)O[C@H]1C[C@@H](C)C=C2C=C[C@H](C)[C@H](CC[C@@H]3C[C@@H](O)CC(=O)O3)[C@H]21 [simvastatin]
tolerability of earlier treatment [3]: discontinued due to side effects
